≈ marks a conversion by molar mass, not a printed value. Read-outs that look alike come from different tables or passages of the source. Starred links: 1 amine or outer side, 2 acyl side, 3 side chain; linkers in the order of their positions; H or OH if unused. Non-standard residues stand in square brackets, D forms with d. Residues, ends and D or L forms follow the SMILES beside them. Groups on a side chain read outwards from the residue. *: point of attachment. γGlu = O=C(O)[C@H](CCC(=O)[*:2])N[*:1]; Stearoyl = CCCCCCCCCCCCCCCCCC(=O)*; Palmitoyl = CCCCCCCCCCCCCCCC(=O)*; αMeK = C[C@](N)(CCCCN)C(=O)O; AEEA = NCCOCCOCC(=O)O; Aib = CC(C)(N)C(=O)O
Legend:
[1] = Solubility testing in buffer; assay type: physicochemical; settings: target solubility 10.0 mg/ml
Experimental: Prior to the testing of solubility of a peptide batch, its purity (HPLC-UV) was determined.
Acetate Buffer 50 mM pH4.5: 0.75 g C2H3C02Na,3H2O (Sigma S7545)+0.35 ml CH3CO2H 100% solution dissolved in Millipore water, adjusted to pH with diluted (1:1) CH3CO2H and diluted to 250 ml with Millipore water.
In a 4 ml Ependorph vial, an accurately weighed sample of compound was diluted in study media to obtain target concentration of 2, 6 or 10 mg/ml of pure compound. The sample vials were shacked (rock 'roll shaker) for ˜19 h. 300 μL aliquots were filtered through a Millipore “Solvinert” plate (0.45 μm-PTFE hydrophilic).
pH was measured with a micro electrode
Waters Acquity UPLC System with DAD detector
Column: Waters Peptide Column CSH C18 (130 Å; 1.7 μm; 50*2.1 mm)
Column temperature: 60° C.
Full loop (about 5 μL)—overfill factor 5
Weak et Strong wash: H2O/ACN (75/25; V/V); Seal wash: H2O/IsOH (95/5; V/V). Mobile phase:
Solvent A: 0.05% TFA in H2O; Solvent B: 0.035% TFA in CH3CN
Gradient: from 0 to 12 min B=2% to 60%, from 12 to 14 min B=60% to 100%. Column washing 100% B 1 min, column equilibration 2% B 2.5 min.
UV detector: wavelength: 220 nm.

RXFP1 = biological target: T1, RXFP1 (Homo sapiens, UniProt Q9HBX9); assay: OVCAR5 cAMP assay (HTRF); assay type: cell-based; settings: for EC50: OVCAR 5 cells expressing endogenous RXFP1, cAMP readout; for Emax: OVCAR 5 cells, maximal cAMP relative to H2-relaxin
T1 construct: OVCAR5 cells expressing endogenous RXFP1; endogenous in cells; host or cells: OVCAR5
T1 sequence (Q9HBX9 1-757): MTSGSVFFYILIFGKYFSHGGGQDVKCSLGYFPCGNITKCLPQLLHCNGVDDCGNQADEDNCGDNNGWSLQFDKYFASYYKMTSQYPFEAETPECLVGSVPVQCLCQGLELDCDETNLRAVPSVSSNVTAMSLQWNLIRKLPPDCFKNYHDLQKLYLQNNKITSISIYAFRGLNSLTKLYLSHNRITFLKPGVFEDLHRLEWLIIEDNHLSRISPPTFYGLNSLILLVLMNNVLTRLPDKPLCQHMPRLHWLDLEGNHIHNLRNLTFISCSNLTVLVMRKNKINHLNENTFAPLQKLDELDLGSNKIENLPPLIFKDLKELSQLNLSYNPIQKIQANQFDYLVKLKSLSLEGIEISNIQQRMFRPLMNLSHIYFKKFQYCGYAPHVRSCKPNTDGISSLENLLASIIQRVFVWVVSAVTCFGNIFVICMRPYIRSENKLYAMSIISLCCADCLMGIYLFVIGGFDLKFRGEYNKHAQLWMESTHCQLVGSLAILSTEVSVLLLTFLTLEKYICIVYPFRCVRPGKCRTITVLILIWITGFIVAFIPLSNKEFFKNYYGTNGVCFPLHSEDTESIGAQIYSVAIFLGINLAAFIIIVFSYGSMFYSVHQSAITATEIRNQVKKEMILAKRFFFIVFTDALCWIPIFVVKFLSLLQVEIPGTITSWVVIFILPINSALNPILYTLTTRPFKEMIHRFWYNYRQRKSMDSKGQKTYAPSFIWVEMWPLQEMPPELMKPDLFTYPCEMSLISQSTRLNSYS
Outline: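 Peptide agonism measured as intracellular cAMP (HTRF) after 30 min at 37° C in serum-free medium, following 40 min 1 mM IBMX preincubation of OVCAR5 cells. Nonlinear regression gave EC50; Emax % = 100 × compound maximal cAMP / H2-relaxin maximal cAMP.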

in vivo = assay: in vivo; parameters: species or system Sprague Dawley rats; settings: rat, iv, 1 mg/kg
Experimental: Prior to the testing of a peptide batch, its purity (HPLC-UV) was determined. Dose was corrected for presence of salts, solvent and purity. Bioanalytical screening method for quantification of peptides in rat: Sprague Dawley rats were dosed with study peptide at a dose of 1 mg/kg intravenously (i.v.) or 3 mg/kg subcutaneously (s.c.) as a solution in PBS (0.2 mg/ml and 0.6 mg/ml respectively). Blood samples were collected after: 0.083, 0.25, 0.5, 1, 2, 4, 8, 24, 48 and 72 h (i.v. route) and 0.25, 0.5, 1, 2, 4, 6, 8, 10, 24, 48 and 72 h (s.c route) post application. Plasma samples were analyzed after protein precipitation via liquid chromatography mass spectrometry (LC/MS). PK parameters and half-life were calculated using Phoenix 64 (WinNonlin 6.4)-Pharsight (Certara™) (non-compartment model). Values below the limit of quantification (BLQ) were replaced by zero for subsequent calculations and PK analysis. T½: in-vivo half-life, time required for test compound plasma concentration to be divided by two during the PK experiment. C0: Extrapolated test compound plasma concentration at t=0 time point (i.v. route). Cmax: maximal test compound plasma concentration at the indicated time point (s.c. route). Tmax: Time point where Cmax was attained. F %: s.c. vs i.v. bioavailability, dose-corrected area under curve (AUC) s.c. route divided by AUC i.v.

[2] = acetate buffer 50 mM pH 4.5, read-out: Solubility Acetate buffer pH 4.5
[3] = phosphate buffer 50 mM pH 7.4, read-out: Solubility phosphate buffer pH 7.4

Row | solubility [1, 2] [µg/mL] | solubility [1, 3] [µg/mL] | EC50 (RXFP1) [nM] | Emax (RXFP1) [%] | Molecule | C0 (in vivo) [nM] | T½ (h), in-vivo half-life (in vivo) [h]
1 | 6680 (≈ 1640 µM) | 6760 (≈ 1660 µM) | 0.43 | 96 | CCCCCCCCCCCCCCCCCC(=O)N[C@@H](CCC(=O)N[C@@H](CCC(=O)N[C@@H](CCC(=O)NCCOCCOCC(=O)NCCOCCOCC(=O)NCCOCCOCC(=O)NCCOCCOCC(=O)NCCCC[C@H](NC(=O)CNC(=O)[C@H](CCC(=O)O)NC(=O)C(C)(C)NC(=O)C(C)(C)NC(=O)[C@@H](NC(=O)[C@H](CCCCNC(C)=O)NC(=O)[C@H](C)NC(=O)[C@H](CCCNC(=N)N)NC(=O)[C@@H](NC(=O)[C@H](CCCCN)NC(=O)[C@H](CCC(=O)O)NC(=O)[C@H](CCCNC(=N)N)NC(=O)CNC(=O)[C@H](CCC(=O)O)NC(=O)[C@H](CC(C)C)NC(C)=O)C(C)C)[C@@H](C)CC)C(=O)N[C@@H](CO)C(=O)N[C@H](C(=O)N[C@@H](Cc1ccccc1)C(=O)N[C@@H](CO)C(=O)N[C@@](C)(CCCCN)C(=O)N[C@@H](CCCNC(=N)N)C(=O)N[C@@H](C)C(=O)N[C@@H](CCCCNC(C)=O)C(N)=O)[C@@H](C)O)C(=O)O)C(=O)O)C(=O)O [compound 26] (Ac-LEGREKVRAK(Ac)I[Aib][Aib]EGK([AEEA-AEEA-AEEA-AEEA-γGlu-γGlu-γGlu-Stearoyl])STFS[αMeK]RAK(Ac)-NH2) | – | –
2 | 6240 (≈ 1530 µM) | 6410 (≈ 1570 µM) | 9.1 | 85 | CCCCCCCCCCCCCCCC(=O)N[C@@H](CCC(=O)N[C@@H](CCC(=O)N[C@@H](CCC(=O)NCCOCCOCC(=O)NCCOCCOCC(=O)NCCOCCOCC(=O)NCCOCCOCC(=O)NCCCC[C@H](NC(=O)CNC(=O)[C@H](CCC(=O)O)NC(=O)C(C)(C)NC(=O)C(C)(C)NC(=O)[C@@H](NC(=O)[C@H](CCCCNC(C)=O)NC(=O)[C@H](C)NC(=O)[C@H](CCCNC(=N)N)NC(=O)[C@@H](NC(=O)[C@H](CCCCN)NC(=O)[C@H](CCC(=O)O)NC(=O)[C@H](CCCNC(=N)N)NC(=O)CNC(=O)[C@H](CCC(=O)O)NC(=O)[C@H](CC(C)C)NC(C)=O)C(C)C)[C@@H](C)CC)C(=O)N[C@@H](CO)C(=O)N[C@H](C(=O)N[C@@H](Cc1c[nH]c2ccccc12)C(=O)N[C@@H](CO)C(=O)NC(C)(C)C(=O)N[C@@H](CCCNC(=N)N)C(=O)N[C@@H](CCCCN)C(=O)N[C@@H](CCCCNC(C)=O)C(N)=O)[C@@H](C)O)C(=O)O)C(=O)O)C(=O)O [compound 5] (Ac-LEGREKVRAK(Ac)I[Aib][Aib]EGK([AEEA-AEEA-AEEA-AEEA-γGlu-γGlu-γGlu-Palmitoyl])STWS[Aib]RKK(Ac)-NH2) | – | –
3 | – | – | – | – | H2-Relaxin: 6-kDa peptidic hormone of 53 amino acids; A chain (SEQ ID NO: 100) and B chain (SEQ ID NO: 101) cross-linked by disulfide bonds | 870 | 0.46
